Patent US7807679B2, “Piperazine derivatives and their use in controlling pests” (Syngenta Crop Protection, Inc., priority 2004, dated 2010)

Columns and labels:
[1] = tested on: Spodoptera littoralis (Egyptian Cotton Leafworm); experiment: Spodoptera littoralis cotton leaf disc spray test; assay type: in vivo; conditions: foliar, 72 h, 200 ppm sprayed on cotton leaf discs, 5 L1 larvae, mortality, repellent effect, feeding behaviour, growth regulation 3 days after treatment
Source text: Spodoptera littoralis (Egyptian Cotton Leafworm)
Cotton leaf discs were placed on agar in a 24-well microtiter plate and sprayed with test solutions at an application rate of 200 ppm. After drying, the leaf discs were infested with 5 L1 larvae. The samples were checked for mortality, repellent effect, feeding behaviour, and growth regulation 3 days after treatment (DAT). The following compounds gave at least 80% control of Spodoptera littoralis: • I-3, I-26, I-29, I-30, I-49, I-52, I-53, I-75, I-417, I-532, I-578, I-785, I-854, I-877, II-49, III-49, V-49, XII-49, XIV-26, XV-26, XXIV-2, XXIV-46, XXIV-90, XXIV-93, XXIV-94, XXV-26 and XXV-49.

[2] = tested on: Aedes aegypti (Yellow Fever Mosquito); experiment: Aedes aegypti larvae test in microtiter plates; assay type: in vivo; conditions: 48 h, larvae (L2) with nutrition mixture, mortality and growth inhibition 2 days later
Source text: 10-15 Aedes larvae (L2) together with a nutrition mixture are placed in 96-well microtiter plates. Test solutions at an application rate of 2 ppm are pipetted into the wells. 2 days later, insects were checked for mortality and growth inhibition. The following compounds gave at least 80% control of Aedes aegypti • I-3, I-26, I-29, I-30, I-49, I-52, I-53, I-72, I-75, I-76, III-49, III-118, XIV-26, XV-26, XXIV-2, XXIV-46, XXIV-90, XXIV-93, XXIV-94 and XXV-68.

[3] = tested on: Heliothis virescens (Tobacco Budworm); experiment: Heliothis virescens egg test on artificial diet; assay type: in vivo; conditions: 96 h, 200 ppm by pipetting, eggs (0-24 h old) on artificial diet, egg mortality, larval mortality, growth regulation after 4 days
Description: Eggs (0-24 h old) were placed in 24-well microtiter plate on artificial diet and treated with test solutions at an application rate of 200 ppm by pipetting. After an incubation period of 4 days, samples were checked for egg mortality, larval mortality, and growth regulation. The following compounds gave at least 80% control of Heliothis virescen: • I-3, I-6, I-7, I-26, I-29, I-30, I-47, I-49, I-52, I-53, I-72, I-75, I-417, I-532, I-578, I-785, I-854, I-877, III-49, V-49, XII-49, XIV-26, XIV-49, XV-26, XVI-26, XVII-26, XXIV-2, XXIV-46, XXIV-90, XXIV-93, XXIV-94, XXV-2, XXV-26, XXV-49 and XXV-68.

[4] = tested on: Myzus persicae (Green Peach Aphid); experiment: Myzus persicae sunflower leaf disc spray test; assay type: in vivo; conditions: foliar, 144 h, 200 ppm sprayed on sunflower leaf discs, aphid population of mixed ages, mortality after 6 DAT
Description: Sunflower leaf discs were placed on agar in a 24-well microtiter plate and sprayed with test solutions at an application rate of 200 ppm. After drying, the leaf discs were infested with an aphid population of mixed ages. After an incubation period of 6 DAT, samples were checked for mortality. The following compounds gave at least 80% control of Myzus persicae: • I-3, I-26, I-29, […], I-30, I-49, I-52, I-53, I-72, I-75, III-49, V-49, XXIV-46, XXIV-90 and XXIV-94.

| melting point [°C] | SMILES | pest or weed control at 200 ppm [1] [%] | pest or weed control at 2 ppm [2] [%] | pest or weed control at 200 ppm [3] [%] | pest or weed control at 200 ppm [4] [%] |
| --- | --- | --- | --- | --- | --- |
|  | O=C(Nc1ccc(Cl)cc1N1CCN(C/C=C/c2ccc(Cl)cc2)CC1)c1ccnc(Cl)c1 [Compound I-49, 2-chloro-N-(4-chloro-2-{4-[(E)-3-(4-chloro-phenyl)-allyl]-piperazin-1-yl}-phenyl)-isonicotinamide] | ≥ 80 | ≥ 80 | ≥ 80 | ≥ 80 |
|  | O=C(Nc1ccc(Cl)cc1N1CCN(C/C=C/c2ccc(C(F)(F)F)cc2)CC1)c1ccnc(Cl)c1 [Compound I-52, 2-chloro-N-(4-chloro-2-{4-[(E)-3-(4-trifluoromethyl-phenyl)-allyl]-piperazin-1-yl}-phenyl)-isonicotinamide] | ≥ 80 | ≥ 80 | ≥ 80 | ≥ 80 |
|  | O=C(Nc1ccc(Cl)cc1N1CCN(C/C=C/c2ccc(OC(F)(F)F)cc2)CC1)c1ccnc(Cl)c1 [Compound I-53, 2-chloro-N-(4-chloro-2-{4-[(E)-3-(4-trifluoromethoxy-phenyl)-allyl]-piperazin-1-yl}-phenyl)-isonicotinamide] | ≥ 80 | ≥ 80 | ≥ 80 | ≥ 80 |
|  | O=C(Nc1cc(F)ccc1N1CCN(C/C=C/c2ccc(C(F)(F)F)cc2)CC1)c1ccnc(Cl)c1 [Compound I-75, 2-chloro-N-(5-fluoro-2-{4-[(E)-3-(4-trifluoromethyl-phenyl)-allyl]-piperazin-1-yl}-phenyl)-isonicotinamide] | ≥ 80 | ≥ 80 | ≥ 80 | ≥ 80 |
| 117 to 120 | CN(C(=O)c1ccnc(Cl)c1)c1ccccc1N1CCN(C/C=C/c2ccc(Cl)cc2)CC1 [Example 2, 2-chloro-N-(2-{4-[(E)-3-(4-chloro-phenyl)-allyl]-piperazin-1-yl}-phenyl)-N-methyl-isonicotinamide] |  |  |  |  |
| 118 to 120 | CN1CCN(c2cc(Cl)ccc2NC(=O)c2ccnc(Cl)c2)CC1 [Example 3, 2-Chloro-N-[4-chloro-2-(4-methyl-piperazin-1-yl)-phenyl]-isonicotinamide] |  |  |  |  |
| 86 to 90 | COCCCNC(=O)Nc1ccc(F)cc1N1CCN(C/C=C/c2ccc(Cl)cc2)CC1 [Example 4, 1-(2-{4-[(E)-3-(4-chloro-phenyl)-allyl]-piperazin-1-yl}-4-fluoro-phenyl)-3-(3-methoxy-propyl)-urea] |  |  |  |  |
| 72 to 77 | O=C1N(Cc2cnc(Cl)s2)CCN1c1ccc(F)cc1N1CCN(C/C=C/c2ccc(Cl)cc2)CC1 [Example 5, 1-(2-{4-[(E)-3-(4-Chloro-phenyl)-allyl]-piperazin-1-yl}-4-fluoro-phenyl)-3-(2-chloro-thiazol-5-ylmethyl)-imidazolidin-2-one] |  |  |  |  |
| 210 to 211 | O=C(Nc1cnc(Cl)nc1N1CCN(C/C=C/c2ccc(OC(F)(F)F)cc2)CC1)c1ccnc(Cl)c1 [Example 7, 2-chloro-N-(2-chloro-4-{4-[(E)-3-(4-trifluoromethoxy-phenyl)-allyl]-piperazin-1-yl}-pyrimidin-5-yl)-isonicotinamide] |  |  |  |  |
| 85 to 88 | Cc1nn(C)c(N2CCN(C/C=C/c3ccc(Cl)cc3)CC2)c1NC(=O)c1ccnc(Cl)c1 [Example 8, 2-Chloro-N-(5-{4-[(E)-3-(4-chloro-phenyl)-allyl]-piperazin-1-yl}-1,3-dimethyl-1H-pyrazol-4-yl)-isonicotinamide] |  |  |  |  |
| 79 to 80 | O=C(Nc1c(Cl)cc(Cl)cc1N1CCN(C/C=C/c2ccc(Cl)cc2)CC1)c1ccnc(Cl)c1 [Example 10, 2-chloro-N-(2-{4-[(E)-3-(4-chloro-phenyl)-allyl]-piperazin-1-yl}-4,6-dichloro-phenyl)-isonicotinamide] |  |  |  |  |
|  | O=C(Nc1ccc(Cl)nc1N1CCN(C/C=C/c2ccc(Cl)cc2)CC1)c1ccnc(Cl)c1 [XXIV-46, 2-chloro-N-(6-chloro-2-{4-[(E)-3-(4-chloro-phenyl)-allyl]-piperazin-1-yl}-pyridin-3-yl)-isonicotinamide] | ≥ 80 | ≥ 80 | ≥ 80 | ≥ 80 |
|  | O=C(Nc1cc(Cl)cnc1N1CCN(C/C=C/c2ccc(Cl)cc2)CC1)c1ccnc(Cl)c1 [XXIV-90, 2-chloro-N-(5-chloro-2-{4-[(E)-3-(4-chloro-phenyl)-allyl]-piperazin-1-yl}-pyridin-3-yl)-isonicotinamide] | ≥ 80 | ≥ 80 | ≥ 80 | ≥ 80 |
|  | O=C(Nc1cc(Cl)cnc1N1CCN(C/C=C/c2ccc(OC(F)(F)F)cc2)CC1)c1ccnc(Cl)c1 [XXIV-94, 2-chloro-N-(5-chloro-2-{4-[(E)-3-(4-trifluoromethoxy-phenyl)-allyl]-piperazin-1-yl}-pyridin-3-yl)-isonicotinamide] | ≥ 80 | ≥ 80 | ≥ 80 | ≥ 80 |
